# Reference: patent publication US11590139B2, “Substituted aminopurine compounds, compositions thereof, and methods of treatment therewith” (Signal Pharmaceuticals, LLC, priority 2014, dated 2023)
# Test system: Lox-IMVI melanoma cell line
# Test: Lox-IMVI anti-proliferative assay (growth inhibition, Cell Titer-Glo)
# Format: cell-based, human
# Settings: Homo sapiens; Lox-IMVI anti-proliferative assay, IC50 activity level; read-out: Activity
# Method in brief: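 RPMI/10% FBS; cmpd 0.5 nM–10 μM, 3-fold ×10, duplicate, 0.2% DMSO final; 72 h, 37 °C, 5% CO2. ATP-luminescence readout at t0 and 72 h. IC50 = 50% of DMSO control, 4-parameter logistic fit.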
row,SMILES,IC50 [nM]
1,"C[C@]1(C(N)=O)CC[C@H](n2c(Nc3c(F)cc(C#N)cc3Cl)nc3cnc(NC4CCCC4)nc32)CC1 [Example 486, (1r,4r)-4-(8-(2-chloro-4-cyano-6-fluorophenylamino)-2-(cyclopentylamino)-9H-purin-9-yl)-1-methylcyclohexanecarboxamide]",500 to 1000
2,"C[C@]1(C(N)=O)CC[C@H](n2c(Nc3c(F)cc(C#N)cc3F)nc3cnc(NC4CCCC4)nc32)CC1 [Example 487, (1r,4r)-4-(8-(4-cyano-2,6-difluorophenylamino)-2-(cyclopentylamino)-9H-purin-9-yl)-1-methylcyclohexanecarboxamide]",> 1000
3,"C[C@]1(C(N)=O)CC[C@H](n2c(Nc3c(Cl)cc(C(F)(F)F)cc3Cl)nc3cnc(NC4CCCC4)nc32)CC1 [Example 488, (1r,4r)-4-(2-(cyclopentylamino)-8-(2,6-dichloro-4-(trifluoromethyl)phenylamino)-9H-purin-9-yl)-1-methylcyclohexanecarboxamide]",> 1000
4,"C[C@]1(C(N)=O)CC[C@H](n2c(Nc3c(F)cc(Cl)cc3F)nc3cnc(NC4CCCC4)nc32)CC1 [Example 489, (1r,4r)-4-(8-(4-chloro-2,6-difluorophenylamino)-2-(cyclopentylamino)-9H-purin-9-yl)-1-methylcyclohexanecarboxamide]",> 1000
5,"C[C@]1(C(N)=O)CC[C@H](n2c(Nc3c(Cl)cc(Cl)cc3Cl)nc3cnc(NC4CCCC4)nc32)CC1 [Example 490, (1r,4r)-4-(2-(cyclopentylamino)-8-(2,4,6-trichlorophenylamino)-9H-purin-9-yl)-1-methylcyclohexanecarboxamide]",> 1000
6,"C[C@]1(C(N)=O)CC[C@H](n2c(Nc3c(F)cc(F)cc3Cl)nc3cnc(NC4CCCC4)nc32)CC1 [Example 491, (1r,4r)-4-(8-(2-chloro-4,6-difluorophenylamino)-2-(cyclopentylamino)-9H-purin-9-yl)-1-methylcyclohexanecarboxamide]",> 1000
7,"C[C@]1(C(N)=O)CC[C@H](n2c(Nc3c(F)cc(Cl)cc3Cl)nc3cnc(NC4CCCC4)nc32)CC1 [Example 492, (1r,4r)-4-(2-(cyclopentylamino)-8-(2,4-dichloro-6-fluorophenylamino)-9H-purin-9-yl)-1-methylcyclohexanecarboxamide]",500 to 1000
8,"C[C@]1(C(N)=O)CC[C@H](n2c(Nc3c(Cl)cc(F)cc3Cl)nc3cnc(NC4CCCC4)nc32)CC1 [Example 493, (1r,4r)-4-(2-(cyclopentylamino)-8-(2,6-dichloro-4-fluorophenylamino)-9H-purin-9-yl)-1-methylcyclohexanecarboxamide]",> 1000
9,"C[C@]1(C(N)=O)CC[C@H](n2c(Nc3c(F)cc(F)cc3F)nc3cnc(NC4CCCC4)nc32)CC1 [Example 494, (1r,4r)-4-(2-(cyclopentylamino)-8-(2,4,6-trifluorophenylamino)-9H-purin-9-yl)-1-methylcyclohexanecarboxamide]",> 1000
10,"C[C@@H]1COCC[C@H]1Nc1ncc2nc(Nc3c(Cl)cc(C#N)cc3Cl)n([C@H]3CC[C@@H](C(N)=O)CC3)c2n1 [Example 495, (1S,4s)-4-(8-(2,6-dichloro-4-cyanophenylamino)-2-((3S,4R)-3-methyltetrahydro-2H-pyran-4-ylamino)-9H-purin-9-yl)cyclohexanecarboxamide]",< 250
11,"C[C@H]1COCC[C@@H]1Nc1ncc2nc(Nc3c(Cl)cc(C#N)cc3Cl)n([C@H]3CC[C@@H](C(N)=O)CC3)c2n1 [Example 496, (1R,4s)-4-(8-(2,6-dichloro-4-cyanophenylamino)-2-((3R,4S)-3-methyltetrahydro-2H-pyran-4-ylamino)-9H-purin-9-yl)cyclohexanecarboxamide]",250 to 500
12,"C[C@H]1COCC[C@H]1Nc1ncc2nc(Nc3c(Cl)cc(C#N)cc3Cl)n([C@H]3CC[C@@H](C(N)=O)CC3)c2n1 [Example 497, (1S,4s)-4-(8-(2,6-dichloro-4-cyanophenylamino)-2-((3R,4R)-3-methyltetrahydro-2H-pyran-4-ylamino)-9H-purin-9-yl)cyclohexanecarboxamide]",< 250
13,"C[C@@H]1COCC[C@@H]1Nc1ncc2nc(Nc3c(Cl)cc(C#N)cc3Cl)n([C@H]3CC[C@@H](C(N)=O)CC3)c2n1 [Example 498, (1R,4s)-4-(8-(2,6-dichloro-4-cyanophenylamino)-2-((3S,4S)-3-methyltetrahydro-2H-pyran-4-ylamino)-9H-purin-9-yl)cyclohexanecarboxamide]",250 to 500
14,"C[C@@H]1COCC[C@H]1Nc1ncc2nc(Nc3c(Cl)cc(Cl)cc3Cl)n([C@H]3CC[C@@H](C(N)=O)CC3)c2n1 [Example 499, (1S,4s)-4-(2-((3S,4R)-3-methyltetrahydro-2H-pyran-4-ylamino)-8-(2,4,6-trichlorophenylamino)-9H-purin-9-yl)cyclohexanecarboxamide]",< 250
15,"C[C@H]1COCC[C@@H]1Nc1ncc2nc(Nc3c(Cl)cc(Cl)cc3Cl)n([C@H]3CC[C@@H](C(N)=O)CC3)c2n1 [Example 500, (1R,4s)-4-(2-((3R,4S)-3-methyltetrahydro-2H-pyran-4-ylamino)-8-(2,4,6-trichlorophenylamino)-9H-purin-9-yl)cyclohexanecarboxamide]",500 to 1000
16,"C[C@H]1COCC[C@H]1Nc1ncc2nc(Nc3c(Cl)cc(Cl)cc3Cl)n([C@H]3CC[C@@H](C(N)=O)CC3)c2n1 [Example 501, (1S,4s)-4-(2-((3R,4R)-3-methyltetrahydro-2H-pyran-4-ylamino)-8-(2,4,6-trichlorophenylamino)-9H-purin-9-yl)cyclohexanecarboxamide]",250 to 500
17,"C[C@@H]1COCC[C@@H]1Nc1ncc2nc(Nc3c(Cl)cc(Cl)cc3Cl)n([C@H]3CC[C@@H](C(N)=O)CC3)c2n1 [Example 502, (1R,4s)-4-(2-((3S,4S)-3-methyltetrahydro-2H-pyran-4-ylamino)-8-(2,4,6-trichlorophenylamino)-9H-purin-9-yl)cyclohexanecarboxamide]",250 to 500
18,"C[C@@H]1COCC[C@H]1Nc1ncc2nc(Nc3c(F)cc(Cl)cc3Cl)n([C@H]3CC[C@@H](C(N)=O)CC3)c2n1 [Example 503, (1S,4s)-4-(8-(2,4-dichloro-6-fluorophenylamino)-2-((3S,4R)-3-methyltetrahydro-2H-pyran-4-ylamino)-9H-purin-9-yl)cyclohexanecarboxamide]",< 250
19,"C[C@H]1COCC[C@@H]1Nc1ncc2nc(Nc3c(F)cc(Cl)cc3Cl)n([C@H]3CC[C@@H](C(N)=O)CC3)c2n1 [Example 504, (1R,4s)-4-(8-(2,4-dichloro-6-fluorophenylamino)-2-((3R,4S)-3-methyltetrahydro-2H-pyran-4-ylamino)-9H-purin-9-yl)cyclohexanecarboxamide]",500 to 1000
20,"C[C@H]1COCC[C@H]1Nc1ncc2nc(Nc3c(F)cc(Cl)cc3Cl)n([C@H]3CC[C@@H](C(N)=O)CC3)c2n1 [Example 505, (1S,4s)-4-(8-(2,4-dichloro-6-fluorophenylamino)-2-((3R,4R)-3-methyltetrahydro-2H-pyran-4-ylamino)-9H-purin-9-yl)cyclohexanecarboxamide]",250 to 500
21,"C[C@@H]1COCC[C@@H]1Nc1ncc2nc(Nc3c(F)cc(Cl)cc3Cl)n([C@H]3CC[C@@H](C(N)=O)CC3)c2n1 [Example 506, (1R,4s)-4-(8-(2,4-dichloro-6-fluorophenylamino)-2-((3S,4S)-3-methyltetrahydro-2H-pyran-4-ylamino)-9H-purin-9-yl)cyclohexanecarboxamide]",250 to 500
22,"C[C@H]1COCC[C@@H]1Nc1ncc2nc(Nc3c(F)cc(Cl)cc3F)n([C@H]3CC[C@@H](C(N)=O)CC3)c2n1 [Example 507, (1R,4s)-4-(8-(4-chloro-2,6-difluorophenylamino)-2-((3R,4S)-3-methyltetrahydro-2H-pyran-4-ylamino)-9H-purin-9-yl)cyclohexanecarboxamide]",> 1000
23,"C[C@H]1COCC[C@H]1Nc1ncc2nc(Nc3c(F)cc(Cl)cc3F)n([C@H]3CC[C@@H](C(N)=O)CC3)c2n1 [Example 508, (1S,4s)-4-(8-(4-chloro-2,6-difluorophenylamino)-2-((3R,4R)-3-methyltetrahydro-2H-pyran-4-ylamino)-9H-purin-9-yl)cyclohexanecarboxamide]",500 to 1000
24,"C[C@@H]1COCC[C@@H]1Nc1ncc2nc(Nc3c(F)cc(Cl)cc3F)n([C@H]3CC[C@@H](C(N)=O)CC3)c2n1 [Example 509, (1R,4s)-4-(8-(4-chloro-2,6-difluorophenylamino)-2-((3S,4S)-3-methyltetrahydro-2H-pyran-4-ylamino)-9H-purin-9-yl)cyclohexanecarboxamide]",500 to 1000
25,"C[C@H]1COCC[C@@H]1Nc1ncc2nc(Nc3c(F)cc(F)cc3F)n([C@H]3CC[C@@H](C(N)=O)CC3)c2n1 [Example 510, (1R,4s)-4-(2-((3R,4S)-3-methyltetrahydro-2H-pyran-4-ylamino)-8-(2,4,6-trifluorophenylamino)-9H-purin-9-yl)cyclohexanecarboxamide]",> 1000
26,"C[C@@H]1COCC[C@@H]1Nc1ncc2nc(Nc3c(F)cc(F)cc3F)n([C@H]3CC[C@@H](C(N)=O)CC3)c2n1 [Example 511, (1R,4s)-4-(2-((3S,4S)-3-methyltetrahydro-2H-pyran-4-ylamino)-8-(2,4,6-trifluorophenylamino)-9H-purin-9-yl)cyclohexanecarboxamide]",500 to 1000
27,"NC(=O)[C@H]1CC[C@@H](n2c(Nc3c(F)cc(F)cc3F)nc3cnc(N[C@H]4CCCC[C@H]4O)nc32)CC1 [Example 512, (1R,4s)-4-(2-((1S,2R)-2-hydroxycyclohexylamino)-8-(2,4,6-trifluorophenylamino)-9H-purin-9-yl)cyclohexanecarboxamide]",> 1000
28,"NC(=O)[C@H]1CC[C@@H](n2c(Nc3c(F)cc(Cl)cc3Cl)nc3cnc(N[C@H]4CCCC[C@H]4O)nc32)CC1 [Example 513, (1R,4s)-4-(8-(2,4-dichloro-6-fluorophenylamino)-2-((1S,2R)-2-hydroxycyclohexylamino)-9H-purin-9-yl)cyclohexanecarboxamide]",> 1000
